Consider eight molecules from the supplement of paper PMC6331611.

In brackets after ≈: the same amount, converted by molar mass. Where a name gives a salt, the structure may show the parent alone.

Experiment [1] has as its system Salmonella enterica serovar Typhimurium SL1344.
For experiment [2] the test system is unchanged. Kind of experiment: intracellular MIC (10-fold luminescence reduction); higher = less potent. The settings on record: RAW264.7 macrophages.
A further experiment relates to RAW264.7. In words: cytotoxicity (LDH release relative to maximum lysis); higher = more toxic. The settings on record: 50 µM; 2 h. A general note: LDH leaks from cells whose membrane has failed.

As a reminder, the MIC is the smallest concentration in the dilution series that meets the test's criterion for growth inhibition. For the molecule `CCCCCCCCNC(C)C(O)c1ccc(SC(C)C)cc1` (stereo not given) [SULOCTIDIL], the minimum inhibitory concentration (MIC) in experiment [1] (LPM pH 5.8) is 50 µM (≈ 16.9 µg/mL); in experiment [1] (MHB), greater than 50 µM; in experiment [1] (MOPS glucose minimal medium) it was greater than 50 µM. In addition, the “intracellular MIC” value in experiment [2] turned out to be 1.56 µM. The molecule also came in with a cytotoxicity in the experiment with RAW264.7 of 33.3%.
In the case of `CC[C@H]1OC(=O)[C@H](C)C(=O)[C@H](C)[C@@H](O[C@@H]2O[C@H](C)C[C@H](N(C)C)[C@H]2O)[C@](C)(OC)C[C@@H](C)C(=O)[C@H](C)[C@H]2N(CCCCn3cnc(-c4cccnc4)c3)C(=O)O[C@]12C` [TELITHROMYCIN], the MIC is greater than 50 µM in experiment [1] (LPM pH 5.8), 12.5 µM (≈ 10.2 µg/mL) in experiment [1] (MHB) and 12.5 µM (≈ 10.2 µg/mL) in experiment [1] (MOPS glucose minimal medium). In addition, the “intracellular MIC” value in experiment [2] was no more than 0.78 µM. The cytotoxicity in the experiment with RAW264.7 turned out to be 20.8%.
For the molecule `CN(C)[C@@H]1C(O)=C(C(N)=O)C(=O)[C@@]2(O)C(O)=C3C(=O)c4c(O)cccc4[C@@](C)(O)[C@H]3C[C@@H]12` [TETRACYCLINE HYDROCHLORIDE], the MIC in experiment [1] (LPM pH 5.8) was no more than 0.78 µM; in experiment [1] (MHB), 12.5 µM; in experiment [1] (MOPS glucose minimal medium), 3.13 µM. Further, the “intracellular MIC” value in experiment [2] came to 1.56 µM. The same molecule returned a cytotoxicity in the experiment on RAW264.7 of 7.01%.
Regarding `C[CH2][Hg][S]c1ccccc1C(=O)[O-].[Na+]` [THIMEROSAL], the MIC in experiment [1] (LPM pH 5.8), in experiment [1] (MHB) and in experiment [1] (MOPS glucose minimal medium) was no more than 0.78 µM in each case. In experiment [2], the “intracellular MIC” value was no more than 0.78 µM. In addition, the cytotoxicity in the experiment with RAW264.7 worked out at 76.7%.
Take `Oc1cc(Cl)ccc1Oc1ccc(Cl)cc1Cl` [TRICLOSAN]: the MIC in experiment [1] (LPM pH 5.8), in experiment [1] (MHB) and in experiment [1] (MOPS glucose minimal medium) was no more than 0.78 µM each time. Further, the “intracellular MIC” value in experiment [2] stood at 1.56 µM. The cytotoxicity in the experiment with RAW264.7 came out at 23.5%.
As to `COc1cc(Cc2cnc(N)nc2N)cc(OC)c1OC` [TRIMETHOPRIM], the results for the MIC in experiment [1] (LPM pH 5.8), in experiment [1] (MHB) and in experiment [1] (MOPS glucose minimal medium) were 3.13 µM (≈ 0.909 µg/mL), no more than 0.78 µM and no more than 0.78 µM, respectively. Moreover, the “intracellular MIC” value in experiment [2] was no more than 0.78 µM. This molecule registered a cytotoxicity in the experiment on RAW264.7 of 19.9%.
For the molecule `O=C(O)CN(CCN(CC(=O)O)CC(=O)O)CC(=O)O.[Na+].[Na+].[Na+]` [TRISODIUM ETHYLENEDIAMINE TETRACETATE], the MIC in experiment [1] (LPM pH 5.8) was 1.56 µM; in experiment [1] (MHB), greater than 50 µM; in experiment [1] (MOPS glucose minimal medium) it was greater than 50 µM. For the same molecule, the “intracellular MIC” value in experiment [2] was no more than 0.78 µM. In the experiment on RAW264.7, this molecule had a cytotoxicity of 8.27%.
Turning to `CCCCC(=O)N(Cc1ccc(-c2ccccc2-c2nnn[nH]2)cc1)[C@H](C(=O)O)C(C)C` [VALSARTAN], the minimal inhibitory concentration (MIC) in experiment [1] (LPM pH 5.8), in experiment [1] (MHB) and in experiment [1] (MOPS glucose minimal medium) was greater than 50 µM throughout. Also, in experiment [2], the “intracellular MIC” value was greater than 50 µM. The molecule also came in with a cytotoxicity in the experiment with RAW264.7 of 6.04%.
